Biological target: T1, vesicular nucleotide transporter (VNUT) (Homo sapiens, UniProt Q9BYT1)
T1 sequence (Q9BYT1 1-436): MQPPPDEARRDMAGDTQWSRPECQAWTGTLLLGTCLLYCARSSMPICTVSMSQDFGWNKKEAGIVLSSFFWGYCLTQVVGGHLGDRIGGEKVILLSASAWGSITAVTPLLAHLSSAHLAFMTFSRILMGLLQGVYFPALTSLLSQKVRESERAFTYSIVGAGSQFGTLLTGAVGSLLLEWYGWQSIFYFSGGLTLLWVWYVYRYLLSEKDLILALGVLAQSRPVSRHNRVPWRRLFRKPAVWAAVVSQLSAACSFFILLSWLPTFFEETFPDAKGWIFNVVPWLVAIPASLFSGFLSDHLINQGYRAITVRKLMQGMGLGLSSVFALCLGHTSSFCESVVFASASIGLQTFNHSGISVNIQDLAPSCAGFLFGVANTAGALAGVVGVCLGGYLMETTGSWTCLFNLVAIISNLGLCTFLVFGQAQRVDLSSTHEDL
Test: [3H]-ATP uptake in proteoliposomes with purified human VNUT
Type: biochemical

IC50: 67 nM
Compound: CC/C=C\C/C=C\C/C=C\C/C=C\C/C=C\CCCC(=O)O [EPA, eicosapentaenoic acid]

Source: paper PMC9335333 (Proceedings of the National Academy of Sciences of the …, 2022)
